Substitutions are numbered along the chain they refer to. Structures can show the parent of a compound that is named as a salt. Where two headings read alike, the source gives them in different places.
Experiments:
renal cancer = conditions: hamster, in vivo; cited from earlier work
renal DNA = conditions: in vivo; cited from earlier work
DNA [1] = conditions: cited from earlier work
DNA [2] = conditions: cited from earlier work; remark: listed apart in the source
[3] = cited from earlier work; for time to steady state concentrations after initiation of therapy: in vivo; for average peak plasma concentration: single oral dose of 20 mg tamoxifen
[4] = cited from earlier work
[5] = single oral doses; cited from earlier work
[6] = system: incidence of breast cancer; conditions: large study of use to prevent and treat osteoporosis; cited from earlier work
estrogen receptors = conditions: preclinical data; cited from earlier work
CYP1B1 mRNA = conditions: primary cultures of normal human epidermal keratinocytes, 24-hour treatment; cited from earlier work
[7] = system: rat mammary carcinoma induced by dimethylbenzanthracene (DMBA); conditions: cited from earlier work
breast cancer incidence = conditions: women at increased risk of the disease; cited from earlier work
COMT = conditions: cited from earlier work
CYP1B1 = conditions: cited from earlier work
[8] = 10 mg tamoxifen twice daily for 3 months, patients
[9] = 20 mg tamoxifen once daily for 3 months

In the case of `C[C@]12CC[C@@H]3c4cc(O)c(O)cc4CC[C@H]3[C@@H]1CCC2=O` [2-OHE1], the “induction of renal cancer” value (renal cancer) is listed as “not”.

For `C[C@]12CC[C@@H]3c4cc(O)c(O)cc4CC[C@H]3[C@@H]1CC[C@@H]2O` [2-OHE2], the “levels of oxidized base 8-hydroxy-deoxyguanosine, oxidative DNA damage” value (from here on “levels … oxidative DNA damage”) (renal DNA) is given as “did not cause oxidative DNA damage”, the “induction of renal cancer” value (renal cancer) is given as “not” and the DNA single-strand breaks (DNA [1]) is given as “negligible effect”.

In the case of `C[C@]12CC[C@@H]3c4ccc(O)c(O)c4CC[C@H]3[C@@H]1CCC2=O` [4-OHE1], the “levels … oxidative DNA damage” value (renal DNA) is given as “significantly increased” and the “induction of renal cancer” value (renal cancer) is given as “induced renal cancer”.

For `C[C@]12CC[C@@H]3c4ccc(O)c(O)c4CC[C@H]3[C@@H]1CC[C@@H]2O` [4-OHE2], the “levels … oxidative DNA damage” value (renal DNA) is given as “significantly increased”, the “induction of renal cancer” value (renal cancer) is given as “induced renal cancer” and the DNA single-strand breaks (DNA [1]) is given as “induced DNA single-strand breaks”.

For `C[C@]12CC[C@@H]3C4=C(CC[C@H]3[C@@H]1CCC2=O)C(=O)C(=O)C=C4` [E1-3,4Q], the “levels of depurinating DNA adducts” value (DNA [2]) is listed as “two to three orders of magnitude higher”.

For `C[C@]12CC[C@@H]3C4=C(CC[C@H]3[C@@H]1CC[C@@H]2O)C(=O)C(=O)C=C4` [E2-3,4Q], the “levels of depurinating DNA adducts” value (DNA [2]) is listed as “two to three orders of magnitude higher”.

For `CC/C(=C(\c1ccccc1)c1ccc(OCCNC)cc1)c1ccccc1` [N-desmethyl tamoxifen], the “average steady-state plasma concentration” value [3, 8] is listed as 336 ng/mL, the “average steady-state plasma concentration” value [3, 9] is listed as 353 ng/mL and the “time to steady state concentrations after initiation of therapy” value [3] is listed as “about 8 weeks”. For the same molecule, the “average peak plasma concentration” value [3] was 15 ng/mL and the half-life ([3]; suggested by time to steady state) was “approximately 14 days”.

In the case of `O=C(c1ccc(OCCN2CCCCC2)cc1)c1c(-c2ccc(O)cc2)sc2cc(O)ccc12` [Raloxifene HCl, methanone, [6-hydroxy-2-(4-hydroxyphenyl)benzo[b]thien-3-yl]-[4-[2-(1-piperidinyl)ethoxy]phenyl]-hydrochloride], the solubility in water [4] is listed as “very slightly soluble”.

In the case of `O=C(c1ccc(OCCN2CCCCC2)cc1)c1c(-c2ccc(O)cc2)sc2cc(O)ccc12` [Raloxifene], the apparent oral clearance [5] is listed as 44.1 L/kg per hour, the “incidence of breast cancer” value [6] is listed as “reduce the incidence of breast cancer” and the “estrogen receptor action in uterine and breast tissues” value (estrogen receptors) is listed as “estrogen antagonist”.

For `Clc1cc2c(cc1Cl)Oc1cc(Cl)c(Cl)cc1O2` [TCDD, 2,3,7,8-tetrachlorodibenzo-p-dioxin], the “increase of CYP1B1 mRNA levels” value (CYP1B1 mRNA) is listed as “approximately 100 fold”.

In the case of `CC/C(=C(\c1ccccc1)c1ccc(OCCN(C)C)cc1)c1ccccc1` [Tamoxifen, reference compound], the “induction of rat mammary carcinoma induced by DMBA” value ([7]; rat) is listed as “inhibits”, the “regression of DMBA-induced tumors in situ” value ([7]; rats) is listed as “causes the regression” and the “average steady-state plasma concentration” value [3, 8] is listed as 120 ng/mL. The “average steady-state plasma concentration” value [3, 9] was 122 ng/mL, the “time to steady state concentrations after initiation of therapy” value [3] was “about 4 weeks” and the “average peak plasma concentration” value [3] was 40 ng/mL. For the same molecule, the “time of peak plasma concentration after dosing” value ([3]; single oral dose of 20 mg) was “approximately 5 hours” and the “reduction of breast cancer incidence” value (breast cancer incidence) was 49%.

B1: 461Thr-462Ile (wt*): purified recombinant wild-type CYP1A1 enzyme (protein, UniProt P04798 1-512, looked up)
Cytochrome P450 1A1: MLFPISMSATEFLLASVIFCLVFWVIRASRPQVPKGLKNPPGPWGWPLIGHMLTLGKNPHLALSRMSQQYGDVLQIRIGSTPVVVLSGLDTIRQALVRQGDDFKGRPDLYTFTLISNGQSMSFSPDSGPVWAARRRLAQNGLKSFSIASDPASSTSCYLEEHVSKEAEVLISTLQELMAGPGHFNPYRYVVVSVTNVICAICFGRRYDHNHQELLSLVNLNNNFGEVVGSGNPADFIPILRYLPNPSLNAFKDLNEKFYSFMQKMVKEHYKTFEKGHIRDITDSLIEHCQEKQLDENANVQLSDEKIINIVLDLFGAGFDTVTTAISWSLMYLVMNPRVQRKIQEELDTVIGRSRRPRLSDRSHLPYMEAFILETFRHSSFVPFTIPHSTTRDTSLKGFYIPKGRCVFVNQWQINHDQKLWVNPSEFLPERFLTPDGAIDKVLSEKVIIFGMGKRKCIGETIARWEVFLFLAILLQRVEFSVPLGVKVDMTPIYGLTMKHACCEHFQMQLRS
B1 gave a Km (CYP1A1) of 17 µM.

B2: 461Asn-462Val: purified recombinant CYP1A1 variant 461Asn-462Val (protein, UniProt P04798 1-512, looked up, variant T461N I462V)
Cytochrome P450 1A1: B1 Cytochrome P450 1A1 with T461N, I462V
In the case of B2, the Km (CYP1A1) is reported as 23 µM.

B3: 461Thr-462Val: purified recombinant CYP1A1 variant 462Ile→Val (protein, UniProt P04798 1-512, looked up, variant I462V)
Cytochrome P450 1A1: B1 Cytochrome P450 1A1 with I462V
With B3 the Km (CYP1A1) was 18 µM.

B4: 461Asn-462Ile: purified recombinant CYP1A1 variant 461Thr→Asn (protein, UniProt P04798 1-512, looked up, variant T461N)
Cytochrome P450 1A1: B1 Cytochrome P450 1A1 with T461N
In the case of B4, the Km (CYP1A1) is reported as 23 µM.

B5: 108Val (wt): wild-type COMT enzyme (protein, UniProt P21964 1-271, looked up)
Catechol O-methyltransferase: MPEAPPLLLAAVLLGLVLLVVLLLLLRHWGWGLCLIGWNEFILQPIHNLLMGDTKEQRILNHVLQHAEPGNAQSVLEAIDTYCEQKEWAMNVGDKKGKIVDAVIQEHQPSVLLELGAYCGYSAVRMARLLSPGARLITIEINPDCAAITQRMVDFAGVKDKVTLVVGASQDIIPQLKKKYDVDTLDMVFLDHWKDRYLPDTLLLEECGLLRKGTVLLADNVICPGAPDFLAHVRGSSCFECTHYQSFLEYREVVDGLEKAIYKGPGSEAGP
For B5, the Km (COMT; reaction 2-OHE2 → 2-MeOE2, COMT) is given as 117 µM, the Km (COMT; reaction 2-OHE2 → 2-OH-3-MeOE2, COMT) is given as 51 µM and the Km (COMT; reaction 4-OHE2 → 4-MeOE2, COMT) is given as 24 µM.

B6: 48Gly-119Ala-432Val-453Asn: CYP1B1 variant enzyme (protein, UniProt Q16678 1-543, looked up, variant R48G)
Cytochrome P450 1B1: MGTSLSPNDPWPLNPLSIQQTTLLLLLSVLATVHVGQRLLRQRRRQLGSAPPGPFAWPLIGNAAAVGQAAHLSFARLARRYGDVFQIRLGSCPIVVLNGERAIHQALVQQGSAFADRPAFASFRVVSGGRSMAFGHYSEHWKVQRRAAHSMMRNFFTRQPRSRQVLEGHVLSEARELVALLVRGSADGAFLDPRPLTVVAVANVMSAVCFGCRYSHDDPEFRELLSHNEEFGRTVGAGSLVDVMPWLQYFPNPVRTVFREFEQLNRNFSNFILDKFLRHCESLRPGAAPRDMMDAFILSAEKKAAGDSHGGGARLDLENVPATITDIFGASQDTLSTALQWLLLLFTRYPDVQTRVQAELDQVVGRDRLPCMGDQPNLPYVLAFLYEAMRFSSFVPVTIPHATTANTSVLGYHIPKDTVVFVNQWSVNHDPLKWPNPENFDPARFLDKDGLINKDLTSRVMIFSVGKRRCIGEELSKMQLFLFISILAHQCDFRANPNEPAKMNFSYGLTIKPKSFKVNVTLRESMELLDSAVQNLQAKETCQ
For B6, the Km (CYP1B1; reaction E2 → 2-OHE2, CYP1B1) is given as 12 µM and the Km (CYP1B1; reaction E2 → 4-OHE2, CYP1B1) is given as 6.6 µM.

B7: 48Gly-119Ser-432Val-453Asn: CYP1B1 variant enzyme (protein, UniProt Q16678 1-543, looked up, variant R48G A119S)
Cytochrome P450 1B1: B6 Cytochrome P450 1B1 with A119S
For B7, the Km (CYP1B1; reaction E2 → 2-OHE2, CYP1B1) is given as 13 µM and the Km (CYP1B1; reaction E2 → 4-OHE2, CYP1B1) is given as 5.5 µM.

B8: 48Arg-119Ala-432Val-453Asn (wt): wild-type CYP1B1 enzyme (protein, UniProt Q16678 1-543, looked up)
Cytochrome P450 1B1: B6 Cytochrome P450 1B1 with G48R
For B8, the Km (CYP1B1; reaction E2 → 2-OHE2, CYP1B1) is given as 24 µM and the Km (CYP1B1; reaction E2 → 4-OHE2, CYP1B1) is given as 14 µM.

B9: 48Arg-119Ser-432Val-453Ser: CYP1B1 variant enzyme (protein, UniProt Q16678 1-543, looked up, variant A119S N453S)
Cytochrome P450 1B1: B6 Cytochrome P450 1B1 with G48R, A119S, N453S
In the case of B9, the Km (CYP1B1; reaction E2 → 2-OHE2, CYP1B1) is listed as 36 µM and the Km (CYP1B1; reaction E2 → 4-OHE2, CYP1B1) is listed as 17 µM.

B10: 48Arg-119Ala-432Val-453Ser: CYP1B1 variant enzyme (protein, UniProt Q16678 1-543, looked up, variant N453S)
Cytochrome P450 1B1: B6 Cytochrome P450 1B1 with G48R, N453S
In the case of B10, the Km (CYP1B1; reaction E2 → 2-OHE2, CYP1B1) is given as 49 µM and the Km (CYP1B1; reaction E2 → 4-OHE2, CYP1B1) is given as 21 µM.

B11: 48Gly-119Ser-432Val-453Ser: CYP1B1 variant enzyme (protein, UniProt Q16678 1-543, looked up, variant R48G A119S N453S)
Cytochrome P450 1B1: B6 Cytochrome P450 1B1 with A119S, N453S
For B11, the Km (CYP1B1; reaction E2 → 2-OHE2, CYP1B1) is listed as 34 µM and the Km (CYP1B1; reaction E2 → 4-OHE2, CYP1B1) is listed as 15 µM.

B12: 48Arg-119Ser-432Val-453Asn: CYP1B1 variant enzyme (protein, UniProt Q16678 1-543, looked up, variant A119S)
Cytochrome P450 1B1: B6 Cytochrome P450 1B1 with G48R, A119S
For B12, the Km (CYP1B1; reaction E2 → 2-OHE2, CYP1B1) is given as 19 µM and the Km (CYP1B1; reaction E2 → 4-OHE2, CYP1B1) is given as 9.3 µM.

B13: 48Gly-119Ala-432Val-453Ser: CYP1B1 variant enzyme (protein, UniProt Q16678 1-543, looked up, variant R48G N453S)
Cytochrome P450 1B1: B6 Cytochrome P450 1B1 with N453S
For B13, the Km (CYP1B1; reaction E2 → 2-OHE2, CYP1B1) is given as 75 µM and the Km (CYP1B1; reaction E2 → 4-OHE2, CYP1B1) is given as 28 µM.

Reference: patent US20090068653A1, “BIOCHEMICAL AND GENETIC ANALYSIS FOR PREDICTION OF BREAST CANCER RISK” (priority 2006, published 2009)
